# Patent US20190022092A1, “Therapeutic Combinations of a BTK Inhibitor and a GITR Binding Molecule, a 4-1BB Agonist, or an OX40 Agonist” (Acerta Pharma B.V., priority 2015, published 2019)
# Key:
# [1] = test system: KPC pancreatic cancer; experiment: KPC pancreatic cancer model (tumor volumes, tumor tissue immune cells); type: in vivo; conditions: tumor tissues
# [2] = test system: GPVI platelet aggregation; experiment: GPVI platelet aggregation studies; type: cell-based; conditions: read-out: IC50, GPVI platelet aggregation
# [3] = GLP functional observation battery; type: in vivo; conditions: rats, doses through 300 mg/kg
# From the text: (§1) Formula (2) was well tolerated in standard in vivo Good Laboratory Practices (GLP) studies of pharmacologic safety.
# [4] = Cardiovascular function study in awake telemeterized dogs; type: in vivo; conditions: male beagle dogs, single doses through 30 mg/kg
# From the text: as §1
# [5] = Preliminary evaluation of metabolism in plasma, bile and urine; type: in vivo; conditions: rats, dogs, monkeys
# [6] = test system: ID8 ovarian cancer; experiment: ID8 syngeneic orthotopic ovarian cancer murine model; type: in vivo, mice; conditions: 15 mg/kg/BID orally
# From the text: […] ovarian cancer models, including the ID8 syngeneic orthotopic ovarian cancer model and other animal models, are described in Fong and Kakar, J. Ovarian Res. 2009, 2, 12; Greenaway, et al., Gynecol. Oncol. 2008, 108, 385-94; Urzua, et al., Tumour Biol. 2005, 26, 236-44; Janat-Amsbury, et al., Anticancer Res. 2006, 26, 3223-28; Janat-Amsbury, et al., Anticancer Res. 2006, 26, 2785-89. […] The results of the study are shown in FIG. 8, FIG. 9, FIG. 10, FIG. 11, FIG. 12, FIG. 13, FIG. 14, and FIG. 15.
# [7] = test system: pancreatic cancer (KPC mice); experiment: KPC pancreatic cancer mouse model; type: in vivo
# From the text: The KPC mouse model recapitulates many of the molecular, histopathologic, and clinical features of human disease (Westphalen and Olive, Cancer J. 2012, 18, 502-510). Mice were enrolled after identification of spontaneously appearing tumors in the pancreas that were ≥100 mm^3 (as assessed by high-resolution ultrasonography).
# [8] = test system: NK cell lysis of Raji cells; experiment: Rituximab ADCC 51Cr release assay, Raji targets; type: cell-based, human; conditions: 1 μM; NK cells, E:T 25:1
# From the text: Cell culture conditions were as follows. […] The HER18 cells were maintained in DEM supplemented with fetal bovine serum, penicillin-streptomycin and. Prior to assay, HER18 cells were harvested using trypsin-EDTA, washed with phosphate-buffered saline (PBS) containing 5% serum and viable cells were counted. For culture of primary target cells, peripheral blood from CLL patients was subject to density centrifugation to obtain peripheral blood mononuclear cells (PBMC). Cell preparations were washed and then subject to positive selection of CD5^+CD19^+ CLL cells using magnetic beads (MACS, Miltenyi Biotech). Cell preparations were used fresh after selection. NK cells from CLL patients and healthy volunteers were enriched from peripheral blood collected in sodium citrate anticoagulant tubes and then subject to density centrifugation. Removal of non NK cells was performed using negative selection by MACS separation. Freshly isolated NK cells were washed three times, enumerated, and then used immediately for ADCC assays.
# ADCC assays were performed as follows. Briefly, target cells (Raji or primary CLL) were labeled by incubation at 37° C. with 100 μCi ^51Cr for 4 hours prior to co-culture with NK cells. Cells were washed, enumerated, and then added in triplicate to prepared 96-well plates containing treated NK cells at an effector:target (E:T) ratio of 25:1. […] Cultures were incubated at 37° C. for 4 hours, and then centrifuged. Supernatants were harvested and ^51Cr release was measured by liquid scintillation counting. All experiments were performed in triplicate.
# [9] = test system: Th17 and Treg cells; experiment: Th17 and Treg development of CD4+ T cells under skewing cytokines; type: cell-based
# Experimental: Enriched CD4^+ T cells are plated on 24-well culture dishes that have been precoated 2 hr with 250 μL anti-TCRβ (0.5 μg/mL) plus anti-CD28 (5 μg/mL) at 37° C. in PBS. The cells are then supplemented with media containing BTK inhibitors along with the skewing cytokines as indicated in the following. The Th17 and Treg cultures are grown for 4 days before analysis. The cells are maintained for an additional 3 days with skewing cytokines (Th17; 20 ng/mL IL-6, 0.5 ng/mL TGF-β, 5 μg/mL IL-4, 5 μg/mL IFN-γ and Treg; 0.5 ng/mL TGF-β, 5 μg/mL IL-4, 5 μg/mL IFN-γ) and are supplemented with IL2 as a growth factor.
# [10] = test system: CD8+ T cell function (B lymphoblast targets); experiment: Cytotoxic T cell (CTL) assay; type: cell-based; conditions: CTL generated 4 days with 500 nM inhibitor
# Experimental: Without being bound by any theory, CD8^+ T cells have two primary effector functions: (1) produce large amounts of IFN-γ (which activates macrophages), and (2) cytolytic activity. […] The targets were B lymphoblasts from lipopolysaccharide (LPS) treated cultures. The assay was performed by incubating different ratios of effectors:targets for 4 hours.
# [11] = test system: NK cells and MDSC subsets in peripheral blood; experiment: Flow cytometry of peripheral blood cell subsets in CLL patients; type: in vivo, human; conditions: patients with falling ALC counts; 28 days of dosing
# Experimental: PBMCs were stained with monoclonal antibodies conjugated to fluorescent tags (flourochromes) to identify cell subsets via flow cytometry. Non-viable cells were excluded from the analysis using the dye 7-aminoactinomycin D (7-AAD). To produce the metric of percent change, the following steps were taken. First, each cell subset was defined by hierarchical flow cytometry gating. Then, the change in frequency (between day 1 and day 28) was calculated for each cell subset. MDSC subsets were measured as a % of all myeloid cells. T cell subsets were measured as a % of all CD3^+ cells, and NK cells were measured as a % of all live CD45^+ cells. […] A cycle is 28 days. A trend is observed wherein patients with decreasing ALC % had increasing MDSC (monocytic) %. This may include patients who had quickly resolving lymphocytosis and those with no initial lymphocytosis. […] This may include patients who had quickly resolving lymphocytosis and those having no initial lymphocytosis. The effects in FIG. 47 to FIG. 50 are observed in multiple cohorts, at doses including 100 mg BID, 200 mg QD, and 400 mg QD. In FIG. 51 and FIG. 52, the effects on NK cells and MDSC cells are compared to a number of other markers versus % change in ALC at C1D28 and C2D28. […] The effects on NK cells and MDSC cells are observed to be much more pronounced than on any of these other markers.
# [12] = test system: CXCL12 and CCL2; experiment: Plasma chemokines in treated CLL patients; type: in vivo, human; conditions: CLL patients on treatment
compound,measurement,setting,value
"CC#CC(=O)N1CCC[C@H]1c1nc(-c2ccc(C(=O)Nc3ccccn3)cc2)c2c(N)nccn12 [Formula (2), (S)-4-(8-amino-3-(1-(but-2-ynoyl)pyrrolidin-2-yl)imidazo[1,5-a]pyrazin-1-yl)-N-(pyridin-2-yl)benzamide]",immunosuppressive MDSCs (Gr1+Ly6CHi),[1],significantly reduced
same,immunosuppressive TAMs (CD11b+Ly6ClowF4/80+Csf1r+),[1],significantly reduced
same,immunosuppressive Tregs (CD4+CD25+FoxP3+),[1],significantly reduced
same,IC50,[2],1150 nM
same,"functional observation battery: neurobehavioral effects, body temperature",[3],no adverse effects
same,"body temperature, cardiovascular, ECG (including QT interval) parameters",[4],no meaningful changes
same,"metabolic processes in plasma, bile, and urine",[5],"oxidation, glutathione binding, and hydrolysis"
same,CD8+ T cells,[6],increase
same,"immunosuppressive B cells, including Bregs",[6]; tumor-bearing mice,significant reduction
same,immunosuppressive tumor-associated lymphocytes,[6]; tumor-bearing mice,significant reduction
same,CD8+ cells in tumor tissues,[7]; 15 mg/kg BID,significant increase
same,MDSCs in tumor tissues,[7]; 15 mg/kg BID,significantly reduced
same,Tregs in tumor tissues,[7]; 15 mg/kg BID,significantly reduced
same,immunosuppressive TAMs in tumor tissues,[7]; 15 mg/kg BID,significantly reduced
same,survival at day 28,[7]; 15 mg/kg BID orally,5/6
same,"average tumor volume, day 28","[7]; 15 mg/kg BID orally, day 28",272 mm^3
same,"average tumor volume, predose","[7]; 15 mg/kg BID orally, predose",165 mm^3
same,"effect on rituximab-mediated ADCC, Raji cells",[8],not inhibited
same,Th17 development,[9],no adverse effect
same,Treg development,[9],no adverse effect
same,CD8+ T cell function as % cytotoxicity,[10],no effect
same,NK cells and monocytic MDSC subsets in peripheral blood,[11],increase in frequency
same,plasma CCL2 levels,[12],significant decrease
same,plasma CXCL12 levels,[12],significant decrease
